In ChEMBL document CHEMBL4138213, “Synthesis and biological characterization of ubenimex-fluorouracil conjugates for anti-cancer therapy” (Eur J Med Chem, 2018):
Active and inactive are the calls of the source. The rule behind the calls is not given here.

Tests used:
U-266 [1] = test: Antiproliferative activity against human U266 cells in presence of 5-FU after 48 hrs by MTT assay; format: functional, cell-based; settings: U-266, 48 h
HCT-116 [2] = test: cells; settings: Homo sapiens, HCT-116, 48 h
PLC-PRF-5 [3] = test: Antiproliferative activity against human PLC/PRF/5 cells after 48 hrs by MTT assay; settings: PLC-PRF-5, 48 h
PLC-PRF-5 [4] = test: Induction of apoptosis in human PLC/PRF/5 cells assessed as necrotic cells at 20 uM in presence of 5-FU after 48 hrs by annexin-V-FITC/propidium iodide staining-based flow cytometric method (reference value: 0.106%); format: functional
PLC-PRF-5 [5] = test: Induction of apoptosis in human PLC/PRF/5 cells assessed as late apoptotic cells at 20 uM in presence of 5-FU after 48 hrs by annexin-V-FITC/propidium iodide staining-based flow cytometric method (reference value: 0.341%); format: functional
[6] = Volume of distribution during elimination phase in Wistar rat at 80 mg/kg, iv after 0.05 to 24 hrs by HPLC-MS/MS analysis; format: ADME, organism-based; settings: in vivo, read-out: Vz
PLC-PRF-5 [7] = test: Antiproliferative activity against human PLC/PRF/5 cells in presence of 5-FU after 48 hrs by MTT assay; format: functional, cell-based; settings: PLC-PRF-5, 48 h
PLC-PRF-5 [8] = test: Induction of apoptosis in human PLC/PRF/5 cells assessed as viable cells at 20 uM after 48 hrs by annexin-V-FITC/propidium iodide staining-based flow cytometric method (reference value: 93.7%); format: functional; settings: PLC-PRF-5, 48 h, read-out: Activity
[9] = Cmax in Wistar rat at 80 mg/kg, iv after 0.05 to 24 hrs by HPLC-MS/MS analysis; format: ADME, organism-based; set-up: dose 80 mg/kg, route intravenous; settings: in vivo
HCT-116 [10] = test: Antiproliferative activity against human HCT116 cells in presence of 5-FU after 48 hrs by MTT assay; settings: HCT-116, 48 h
PLC-PRF-5 [11] = test: Downregulation of CD13 expression in human PLC/PRF/5 cells at 10 uM in presence of 5-FU after 48 hrs by flow cytometric method; format: functional, cell-based
PLC-PRF-5 [12] = test: Induction of apoptosis in human PLC/PRF/5 cells assessed as viable cells at 20 uM in presence of 5-FU after 48 hrs by annexin-V-FITC/propidium iodide staining-based flow cytometric method (reference value: 93.7%); format: functional; settings: PLC-PRF-5, 48 h, read-out: Activity
HepG2 [13] = test: Antiproliferative activity against human HepG2 cells in presence of 5-FU after 48 hrs by MTT assay; format: functional, cell-based; settings: HepG2, 48 h
U-266 [14] = test: Antiproliferative activity against human U266 cells after 48 hrs by MTT assay; settings: U-266, 48 h
PLC-PRF-5 [15] = test: Downregulation of CD13 expression in human PLC/PRF/5 cells at 10 uM after 48 hrs by flow cytometric method; format: functional, cell-based
PLC-PRF-5 [16] = test: Induction of apoptosis in human PLC/PRF/5 cells assessed as late apoptotic cells at 20 uM after 48 hrs by annexin-V-FITC/propidium iodide staining-based flow cytometric method (reference value: 0.341%); format: functional
PLC-PRF-5 [17] = test: Induction of apoptosis in human PLC/PRF/5 cells assessed as necrotic cells at 20 uM after 48 hrs by annexin-V-FITC/propidium iodide staining-based flow cytometric method (reference value: 0.106%); format: functional
[18] = AUC (0 to infinity) in Wistar rat at 80 mg/kg, iv after 0.05 to 24 hrs by HPLC-MS/MS analysis; format: ADME, organism-based; set-up: dose 80 mg/kg, time infinity, route intravenous; settings: in vivo
[19] = Apparent clearance in Wistar rat at 80 mg/kg, iv after 0.05 to 24 hrs by HPLC-MS/MS analysis; format: ADME, organism-based; settings: in vivo, read-out: CL(app) (converted)
[20] = Antiproliferative activity against human H7402 cells in presence of 5-FU after 48 hrs by MTT assay; settings: H7402, 48 h
A549 = test: Antiproliferative activity against human A549 cells in presence of 5-FU after 48 hrs by MTT assay; settings: A549, 48 h
U-937 [21] = test: cells; settings: Homo sapiens, U-937, 48 h
Description: Antiproliferative activity against human U937 cells after 48 hrs by MTT assay

U-937 [22] = test: Antiproliferative activity against human U937 cells in presence of 5-FU after 48 hrs by MTT assay; settings: U-937, 48 h
[23] = MRT (0 to infinity) in Wistar rat at 80 mg/kg, iv after 0.05 to 24 hrs by HPLC-MS/MS analysis; format: ADME, organism-based; settings: Wistar, in vivo
PLC-PRF-5 [24] = test: Induction of apoptosis in human PLC/PRF/5 cells assessed as early apoptotic cells at 20 uM in presence of 5-FU after 48 hrs by annexin-V-FITC/propidium iodide staining-based flow cytometric method (reference value: 5.82%); format: functional
[25] = Antiproliferative activity against human ES2 cells in presence of 5-FU after 48 hrs by MTT assay; settings: ES-2, 48 h
[26] = Terminal Half life in Wistar rat at 80 mg/kg, iv after 0.05 to 24 hrs by HPLC-MS/MS analysis; format: ADME, organism-based; settings: Wistar, in vivo, read-out: beta t1/2 (converted)
[27] = Drug level in Wistar rat plasma treated with (5-fluoro-2,4-dioxo-3,4-dihydropyrimidin1(2H)-yl)methyl-2-((S)-2-((2S,3R)-3-amino-2-hydroxy-4-phenylbut-anamido)-4-methylpentanamido)acetate hydrochloride assessed as peptidase-mediated compound formation at 80 mg/kg, iv by HPLC-MS/MS analysis; format: ADME, organism-based; settings: in vivo
Rattus norvegicus = test: VRT (0 to infinity) in Wistar rat at 80 mg/kg, iv after 0.05 to 24 hrs by HPLC-MS/MS analysis; format: ADME, organism-based; settings: in vivo
HUVEC = settings: Homo sapiens, 30 uM
PLC-PRF-5 [28] = test: Induction of apoptosis in human PLC/PRF/5 cells assessed as early apoptotic cells at 20 uM after 48 hrs by annexin-V-FITC/propidium iodide staining-based flow cytometric method (reference value: 5.82%); format: functional
HepG2 [29] = test: cells; settings: Homo sapiens, HepG2, 48 h

**Q.** With `CC(C)C[C@H](NC(=O)[C@@H](O)[C@H](N)Cc1ccccc1)C(=O)O` [UBENIMEX] as the compound, how does the IC50 (U-266 [1]) read?
**A.** 43.5 µM

**Q.** What about the IC50 (HCT-116 [2]) of the same compound?
**A.** 358 µM

**Q.** What about the IC50 (PLC-PRF-5 [3]) of the same compound?
**A.** > 500 µM

**Q.** And the Activity (PLC-PRF-5 [4])?
**A.** 0%

**Q.** What about the Activity (PLC-PRF-5 [5]) of the same compound?
**A.** 2.38%

**Q.** And the Vd [6]?
**A.** 34.2 L/kg

**Q.** And the IC50 (PLC-PRF-5 [7])?
**A.** 22.8 µM

**Q.** What about the viability at 20 µM (PLC-PRF-5 [8]) of the same compound?
**A.** 83.4%

**Q.** What about the Cmax [9] of the same compound?
**A.** 2300 ng/mL

**Q.** What about the IC50 (HCT-116 [10]) of the same compound?
**A.** 44.1 µM

**Q.** And the Activity (PLC-PRF-5 [11])?
**A.** Active

**Q.** What about the viability at 20 µM (PLC-PRF-5 [12]) of the same compound?
**A.** 64.3%

**Q.** What about the IC50 (HepG2 [13]) of the same compound?
**A.** 14.5 µM

**Q.** And the IC50 (U-266 [14])?
**A.** > 500 µM

**Q.** What about the Activity (PLC-PRF-5 [15]) of the same compound?
**A.** Active

**Q.** And the Activity (PLC-PRF-5 [16])?
**A.** 3.59%

**Q.** And the Activity (PLC-PRF-5 [17])?
**A.** 0.01%

**Q.** And the AUC(0-inf) [18]?
**A.** 11500 ng·h/mL

**Q.** What about the clearance [19] of the same compound?
**A.** 116 mL/min/kg

**Q.** What about the IC50 [20] of the same compound?
**A.** 17.6 µM

**Q.** And the IC50 (A549)?
**A.** 15.9 µM

**Q.** And the IC50 (U-937 [21])?
**A.** 143 µM

**Q.** And the IC50 (U-937 [22])?
**A.** 9.56 µM

**Q.** What about the MRT inf [23] of the same compound?
**A.** 3.44 h

**Q.** And the Activity (PLC-PRF-5 [24])?
**A.** 33.3%

**Q.** What about the IC50 [25] of the same compound?
**A.** 37.1 µM

**Q.** And the half-life [26]?
**A.** 3.4 h

**Q.** And the Drug metabolism [27]?
**A.** Metabolite_Detected

**Q.** What about the VRT (Rattus norvegicus) of the same compound?
**A.** 13.087 hr2

**Q.** What about the inhibition (HUVEC) of the same compound?
**A.** Active

**Q.** And the Activity (PLC-PRF-5 [28])?
**A.** 13%

**Q.** What about the IC50 (HepG2 [29]) of the same compound?
**A.** > 500 µM
